# Data as given in article PMC5428020 (Chemical Science, 2017).
# Experiment: Water solubility as observed during handling, NMR and crystallization
# Type: physicochemical
substance,measurement,value
Fmoc–Q^SO3H–OH [Compound 14],solubility in water (in words),surprisingly high
